Holding throughout (format): cell-based
One test deals with MCF7 cells. In words: Anti-proliferation (viability) of MCF7 cells (Table 7, FIG. 2B). Conditions: Homo sapiens, MCF7, MCF7 cells, 3-6 days, 10-point serial dilution; read-out: GI IC50 in MCF-7.
The target of the next test is CDK4 (Homo sapiens, UniProt P11802+Q16531). The test is described as follows: HiBiT detection of HiBiT-tagged CDK4 protein level in MCF7 cells, 16 hours (Table 8). Conditions: MCF7 cells stably expressing HiBiT tagged target proteins; for activity at 0.01 µM: 10 nM, read-out: % CDK4 Relative Level (10 nM); for activity at 0.1 µM: 100 nM, read-out: % CDK4 Relative Level (100 nM). Further details: expressed in transfected cells; host or cells: MCF7. On the procedure:
HiBiT detection system quantitatively measures total amounts of HiBiT-tagged proteins using a luminescent based method. MCF7 cells stably expressing HiBiT tagged target proteins were treated with heterobifunctional compounds at indicated concentrations for 16 hours, then lysed with Nano-Glo HiBiT Lytic detection reagents.

The next test concerns Calu-1 cells. The test is described as follows: Anti-proliferation (viability) of NSCLC Calu-1 cells, 3 days (Table 7, FIG. 2B). Conditions: Homo sapiens, 72 h; Calu-1 cells, 3 days, 10-point serial dilution; read-out: GI IC50 in Calu-1. An outline of the steps: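 Treatment length differs by line: Calu-1 cells receive degrader for 3 days, T47D cells for 6 days, each over a 10-point dilution series. A warhead-modified analogue with unchanged DDB1 binder and linker served as the non-CDK4-binding control.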

The source of these data is US20260297081A1, “COMPOUNDS AND METHODS OF TREATING CANCERS” (Cullgen Inc., priority 2023, published 2026).

Chain of CDK4 (P11802 whole entry): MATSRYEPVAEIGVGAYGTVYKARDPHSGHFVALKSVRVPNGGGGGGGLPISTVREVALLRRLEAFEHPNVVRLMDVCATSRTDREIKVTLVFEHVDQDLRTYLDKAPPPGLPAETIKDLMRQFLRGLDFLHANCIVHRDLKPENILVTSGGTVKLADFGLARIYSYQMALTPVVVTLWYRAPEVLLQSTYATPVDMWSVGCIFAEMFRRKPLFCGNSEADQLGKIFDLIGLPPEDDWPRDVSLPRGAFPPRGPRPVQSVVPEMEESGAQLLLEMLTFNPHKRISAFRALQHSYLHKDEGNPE
Chain of CDK4 (P24385 whole entry partner): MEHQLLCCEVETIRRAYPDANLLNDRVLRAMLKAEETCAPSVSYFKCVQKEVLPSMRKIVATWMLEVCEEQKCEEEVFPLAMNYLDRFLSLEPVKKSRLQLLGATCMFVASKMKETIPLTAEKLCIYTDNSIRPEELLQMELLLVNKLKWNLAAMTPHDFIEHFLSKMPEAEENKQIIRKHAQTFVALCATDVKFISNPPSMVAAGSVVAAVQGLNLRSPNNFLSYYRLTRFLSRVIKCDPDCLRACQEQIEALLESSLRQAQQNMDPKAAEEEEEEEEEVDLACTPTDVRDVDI
Chain of CDK4 (Q16531 2-1140 limits assumed): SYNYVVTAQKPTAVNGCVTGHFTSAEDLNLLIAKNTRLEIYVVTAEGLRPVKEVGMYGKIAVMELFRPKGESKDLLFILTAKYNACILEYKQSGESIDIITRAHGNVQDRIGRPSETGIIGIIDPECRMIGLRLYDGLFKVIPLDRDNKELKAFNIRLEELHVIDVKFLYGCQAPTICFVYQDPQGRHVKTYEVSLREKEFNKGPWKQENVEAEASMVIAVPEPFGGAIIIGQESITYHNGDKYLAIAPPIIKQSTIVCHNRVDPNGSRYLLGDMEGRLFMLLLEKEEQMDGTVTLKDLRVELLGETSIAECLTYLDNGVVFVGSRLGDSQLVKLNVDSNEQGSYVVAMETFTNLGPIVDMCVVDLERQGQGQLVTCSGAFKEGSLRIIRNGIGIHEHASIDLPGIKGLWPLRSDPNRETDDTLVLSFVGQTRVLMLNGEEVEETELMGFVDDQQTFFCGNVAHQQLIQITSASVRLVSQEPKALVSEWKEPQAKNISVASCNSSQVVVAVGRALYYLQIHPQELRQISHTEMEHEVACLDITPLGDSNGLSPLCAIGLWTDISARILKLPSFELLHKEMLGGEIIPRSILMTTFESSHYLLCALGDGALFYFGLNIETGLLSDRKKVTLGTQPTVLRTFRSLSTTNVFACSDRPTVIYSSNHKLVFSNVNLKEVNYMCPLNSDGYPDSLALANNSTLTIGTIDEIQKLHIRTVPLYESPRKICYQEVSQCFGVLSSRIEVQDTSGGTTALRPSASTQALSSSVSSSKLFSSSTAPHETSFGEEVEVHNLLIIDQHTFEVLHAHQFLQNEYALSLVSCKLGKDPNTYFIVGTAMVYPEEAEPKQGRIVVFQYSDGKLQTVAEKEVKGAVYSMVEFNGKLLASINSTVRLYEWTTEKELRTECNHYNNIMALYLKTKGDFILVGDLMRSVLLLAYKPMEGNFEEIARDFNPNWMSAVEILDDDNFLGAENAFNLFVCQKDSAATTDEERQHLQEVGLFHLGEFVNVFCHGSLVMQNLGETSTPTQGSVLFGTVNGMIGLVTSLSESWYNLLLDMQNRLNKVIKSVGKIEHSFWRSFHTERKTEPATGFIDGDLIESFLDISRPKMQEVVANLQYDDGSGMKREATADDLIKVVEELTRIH

A word on the IC50: it is the midpoint of a concentration-inhibition curve. For the compound `CC(=O)c1c(C)c2cnc(Nc3ccc(N4CCN(C5CCN(C(=O)[C@H]6CC[C@H](Nc7nc(NC(C)C)ccc7C(=O)Nc7cn(C)c(C8CC8)n7)CC6)C5)CC4)cn3)nc2n(C2CCCC2)c1=O` (stereo partly shown) [CPD-481, 2-((4-(3-(4-(6-((6-acetyl-8-cyclopentyl-5-methyl-7-oxo-7,8-dihydropyrido[2,3-d]pyrimidin-2-yl)amino)pyridin-3-yl)piperazin-1-yl)pyrrolidine-1-carbonyl)cyclohexyl)amino)-N-(2-cyclopropyl-1-methyl-1H-imidazol-4-yl)-6-(isopropylamino)nicotinamide], the IC50 in the test with MCF7 cells is under 50 nM; with Calu-1 cells, at most 10 nM. Besides, at CDK4, the activity at 0.01 µM is over 85%. For the same compound, the activity at 0.1 µM at CDK4 was over 85%.
Turning to `CC(=O)c1c(C)c2cnc(Nc3ccc(N4CCN(C5CCN(C(=O)CC67CC(Nc8nc(NC(C)C)ccc8C(=O)Nc8ccc(N(C)C)nn8)(C6)C7)C5)CC4)cn3)nc2n(C2CCCC2)c1=O` (stereo not shown) [CPD-537, 2-((3-(2-(3-(4-(6-((6-acetyl-8-cyclopentyl-5-methyl-7-oxo-7,8-dihydropyrido[2,3-d]pyrimidin-2-yl)amino)pyridin-3-yl)piperazin-1-yl)pyrrolidin-1-yl)-2-oxoethyl)bicyclo[1.1.1]pentan-1-yl)amino)-N-(6-(dimethylamino)pyridazin-3-yl)-6-(isopropylamino)nicotinamide], the IC50 with MCF7 cells is under 50 nM; with Calu-1 cells, at most 10 nM. The activity at 0.01 µM on CDK4 was over 85%. In addition, the activity at 0.1 µM at CDK4 was over 85%.
For `CC(=O)c1c(C)c2cnc(Nc3ccc(CN4CCN(CC(=O)N5CC6(CCC(Nc7nc(NC(C)C)ccc7C(=O)Nc7ccc(N(C)C)nn7)C6)C5)CC4)cn3)nc2n(C2CCCC2)c1=O` (stereo not shown) [CPD-515, 2-((2-(2-(4-((6-((6-acetyl-8-cyclopentyl-5-methyl-7-oxo-7,8-dihydropyrido[2,3-d]pyrimidin-2-yl)amino)pyridin-3-yl)methyl)piperazin-1-yl)acetyl)-2-azaspiro[3.4]octan-6-yl)amino)-N-(6-(dimethylamino)pyridazin-3-yl)-6-(isopropylamino)nicotinamide], the values for the 50% inhibitory concentration (IC50) in the test on MCF7 cells and in the test on Calu-1 cells were under 50 nM and at most 10 nM, respectively. At CDK4, the activity at 0.01 µM is over 85%. The activity at 0.1 µM on CDK4 was over 85%.
Regarding `CC(=O)c1c(C)c2cnc(Nc3ccc(CN4CCN(CC(=O)NC5CC6(C5)CC(Nc5nc(NC(C)C)ccc5C(=O)Nc5ccc(N(C)C)nn5)C6)CC4)cn3)nc2n(C2CCCC2)c1=O` (stereo not shown) [CPD-472, 2-((6-(2-(4-((6-((6-acetyl-8-cyclopentyl-5-methyl-7-oxo-7,8-dihydropyrido[2,3-d]pyrimidin-2-yl)amino)pyridin-3-yl)methyl)piperazin-1-yl)acetamido)spiro[3.3]heptan-2-yl)amino)-N-(6-(dimethylamino)pyridazin-3-yl)-6-(isopropylamino)nicotinamide], the IC50 in the test with MCF7 cells is under 50 nM. In addition, at CDK4, the activity at 0.01 µM is 55 to 85% and the activity at 0.1 µM is at most 55%. For the same compound, the IC50 in the test on Calu-1 cells is at most 10 nM.
For `CC(=O)c1c(C)c2cnc(Nc3ccc(N4CCC5(CCN(CC(=O)N6CC7(CC(Nc8nc(NC(C)C)ccc8C(=O)Nc8cn9c(n8)CCC9)C7)C6)C5)C4)cn3)nc2n(C2CCCC2)c1=O` (stereo not shown) [CPD-565, 2-((2-(2-(7-(6-((6-acetyl-8-cyclopentyl-5-methyl-7-oxo-7,8-dihydropyrido[2,3-d]pyrimidin-2-yl)amino)pyridin-3-yl)-2,7-diazaspiro[4.4]nonan-2-yl)acetyl)-2-azaspiro[3.3]heptan-6-yl)amino)-N-(6,7-dihydro-5H-pyrrolo[1,2-a]imidazol-2-yl)-6-(isopropylamino)nicotinamide] the same measures were under 50 nM, over 85%, 55 to 85% and at most 10 nM.
For `CNc1ccc(C(=O)Nc2ccc(N(C)C)nn2)c(NCCC(=O)N2CCN(c3ccc(Nc4ncc5cc(C(=O)N(C)C)n(C6CCCC6)c5n4)nc3)CC2)n1` [CPD-616, 7-cyclopentyl-2-((5-(4-(3-((3-((6-(dimethylamino)pyridazin-3-yl)carbamoyl)-6-(methylamino)pyridin-2-yl)amino)propanoyl)piperazin-1-yl)pyridin-2-yl)amino)-N,N-dimethyl-7H-pyrrolo[2,3-d]pyrimidine-6-carboxamide], in that order: over 100 nM, over 85%, over 85% and at least 50 nM.
Take `CC(=O)c1c(C)c2cnc(Nc3ccc(N4CCN(C5CCN(C(=O)[C@H]6CC[C@H](Nc7nc(NC(C)C)ccc7C(=O)Nc7cc(C)n(C)n7)CC6)C5)CC4)cn3)nc2n(C2CCCC2)c1=O` (stereo partly shown) [CPD-478, 2-((4-(3-(4-(6-((6-acetyl-8-cyclopentyl-5-methyl-7-oxo-7,8-dihydropyrido[2,3-d]pyrimidin-2-yl)amino)pyridin-3-yl)piperazin-1-yl)pyrrolidine-1-carbonyl)cyclohexyl)amino)-N-(1,5-dimethyl-1H-pyrazol-3-yl)-6-(isopropylamino)nicotinamide]: the IC50 in the test on MCF7 cells was under 50 nM. At CDK4, the activity at 0.01 µM was over 85% and the activity at 0.1 µM was 55 to 85%. The IC50 with Calu-1 cells is at most 10 nM.
For `CC(=O)c1c(C)c2cnc(Nc3ccc(N4CCN(C5CCN(C(=O)[C@H]6CC[C@H](Nc7nc(C(C)C)ccc7C(=O)Nc7ccc(N(C)C)nn7)CC6)C5)CC4)cn3)nc2n(C2CCCC2)c1=O` (stereo partly drawn) [CPD-499, 2-((trans-4-(3-(4-(6-((6-acetyl-8-cyclopentyl-5-methyl-7-oxo-7,8-dihydropyrido[2,3-d]pyrimidin-2-yl)amino)pyridin-3-yl)piperazin-1-yl)pyrrolidine-1-carbonyl)cyclohexyl)amino)-N-(6-(dimethylamino)pyridazin-3-yl)-6-isopropylnicotinamide], in that order: under 50 nM, over 85%, 55 to 85% and at most 10 nM.
For `CC(=O)c1c(C)c2cnc(Nc3ccc(N4CCN(CC(=O)N(C)CC56CC(Nc7nc(NC(C)C)ccc7C(=O)Nc7ccc(N(C)C)nn7)(C5)C6)CC4)cn3)nc2n(C2CCCC2)c1=O` [CPD-525, 2-((3-((2-(4-(6-((6-acetyl-8-cyclopentyl-5-methyl-7-oxo-7,8-dihydropyrido[2,3-d]pyrimidin-2-yl)amino)pyridin-3-yl)piperazin-1-yl)-N-methylacetamido)methyl)bicyclo[1.1.1]pentan-1-yl)amino)-N-(6-(dimethylamino)pyridazin-3-yl)-6-(isopropylamino)nicotinamide], in that order: under 50 nM, over 85%, over 85% and at most 10 nM.
Turning to `CCc1ccc(C(=O)Nc2ccc(N(C)C)nn2)c(N[C@H]2CC[C@H](C(=O)N3CCC(N4CCN(c5ccc(Nc6ncc7c(C)c(C(C)=O)c(=O)n(C8CCCC8)c7n6)nc5)CC4)C3)CC2)n1` (stereo partly shown) [CPD-492, 2-((4-(3-(4-(6-((6-acetyl-8-cyclopentyl-5-methyl-7-oxo-7,8-dihydropyrido[2,3-d]pyrimidin-2-yl)amino)pyridin-3-yl)piperazin-1-yl)pyrrolidine-1-carbonyl)cyclohexyl)amino)-N-(6-(dimethylamino)pyridazin-3-yl)-6-ethylnicotinamide], in the test with MCF7 cells, the IC50 was under 50 nM. Moreover, on CDK4, the activity at 0.01 µM was over 85% and the activity at 0.1 µM is over 85%. In addition, the IC50 in the test on Calu-1 cells is at most 10 nM.
